In patent US20260014179A1, “OLIGOSACCHARIDE COMPOSITION FOR USE IN THE REDUCTION OF THE LEVEL OF BRANCHED SHORT CHAIN FATTY ACIDS” (priority 2022, published 2026):

System: microbiota present in the faecal samples
Experiment: Oligosaccharide distribution (HPAEC-PAD peak areas) during faecal fermentation
Source text: HPAEC-PAD (high performance anion exchange chromatography) equipped with a PA-1 column was used for separation of mono- and oligosaccharides of the different samples. Efforts were made to achieve a separation quality described in van Leeuwen et al., Carbohydrate Research 2016, 425, 48-58. […] The samples as used for GPC were 100-fold diluted with DMSO before injection.
The distribution of oligosaccharides in the mixtures was also monitored over this time period using the method described above in relation to Table 2.

SMILES	Peak areas (in Comp. Ex. 1, 0 h)	Peak areas (in Comp. Ex. 1, 6 h, Donor A)	Peak areas (in Comp. Ex. 1, 6 h, Donor B)	Peak areas (in Comp. Ex. 1, 6 h, Donor C)	Peak areas (in Comp. Ex. 1, 24 h, Donor A)	Peak areas (in Comp. Ex. 1, 24 h, Donor B)	Peak areas (in Comp. Ex. 1, 24 h, Donor C)	Peak areas (in Comp. Ex. 1, 48 h, Donor A)	Peak areas (in Comp. Ex. 1, 48 h, Donor B)	Peak areas (in Comp. Ex. 1, 48 h, Donor C)	Peak areas (in Example 2, 0 h)	Peak areas (in Example 2, 6 h, Donor A)	Peak areas (in Example 2, 6 h, Donor B)	Peak areas (in Example 2, 6 h, Donor C)	Peak areas (in Example 2, 24 h, Donor A)	Peak areas (in Example 2, 24 h, Donor B)	Peak areas (in Example 2, 24 h, Donor C)	Peak areas (in Example 2, 48 h, Donor A)	Peak areas (in Example 2, 48 h, Donor B)	Peak areas (in Example 2, 48 h, Donor C)
O=C[C@H](O)[C@@H](O)[C@@H](O)[C@H](O)CO [Galactose]	0.5	2.4	45.1	0.7	0.0	0.1	0.0	0.0	0.0	0.0	1.3	2.1	47.3	0.8	0.0	0.1	0.0	0.0	0.0	0.0
O=C[C@H](O)[C@@H](O)[C@H](O)[C@H](O)CO [Glucose]	19.5	2.9	34.1	0.2	0.0	0.1	0.0	0.0	0.0	0.0	17.5	2.6	26.9	0.3	0.0	0.0	0.0	0.0	0.0	0.0
OC[C@H]1O[C@@H](O[C@H]2[C@H](O)[C@@H](O)C(O)O[C@@H]2CO)[C@H](O)[C@@H](O)[C@H]1O (stereo partly drawn) [Lactose]	48.4	0.7	1.9	0.4	0.4	0.5	0.4	0.3	0.5	0.3	30.9	0.3	5.3	0.6	0.3	0.4	0.4	0.3	0.5	0.3
